Among the data in ChEMBL document CHEMBL1126518, “EPSP synthase inhibitor design II. The importance of the 3-phosphate group for ligand binding at the shikimate-3-phosphate site & the identification of 3-malonate ethers as novel 3-phosphate mimics” (Bioorg Med Chem Lett, 1993) are IC50, Km and k cat values, retold here.

T1: 3-phosphoshikimate 1-carboxyvinyltransferase (Escherichia coli K-12, UniProt P0A6D3)
T1 sequence (P0A6D3 whole entry): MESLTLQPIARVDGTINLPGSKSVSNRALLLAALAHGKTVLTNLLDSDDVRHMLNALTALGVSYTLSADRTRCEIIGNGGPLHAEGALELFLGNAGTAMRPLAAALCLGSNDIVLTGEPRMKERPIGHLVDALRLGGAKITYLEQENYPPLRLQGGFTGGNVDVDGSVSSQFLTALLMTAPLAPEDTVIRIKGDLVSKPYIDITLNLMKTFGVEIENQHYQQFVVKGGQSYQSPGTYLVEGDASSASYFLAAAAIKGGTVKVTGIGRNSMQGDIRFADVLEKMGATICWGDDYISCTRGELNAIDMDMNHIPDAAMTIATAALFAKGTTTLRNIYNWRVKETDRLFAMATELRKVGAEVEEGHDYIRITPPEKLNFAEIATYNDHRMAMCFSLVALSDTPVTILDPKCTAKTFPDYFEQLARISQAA

T2: 3-phosphoshikimate 1-carboxyvinyltransferase (Escherichia coli K-12) (UniProt P0A6D3)
T2 sequence (whole entry): T1 sequence (P0A6D3 whole entry)

B1: 3-phosphoshikimate 1-carboxyvinyltransferase (Escherichia coli K-12), P0A6D3 (protein)
chain: T1 sequence (P0A6D3 whole entry)

One may read the IC50 as the concentration at which inhibition is half-maximal. A lower IC50 goes with greater potency. By Km is commonly meant the concentration of substrate that gives half-maximal velocity.

The first series concerns the target T1, 3-phosphoshikimate 1-carboxyvinyltransferase. Kind of series: Inhibition of Escherichia coli EPSP(5-enolpyruvyl-shikimate-3-phosphate) Synthase.
`O=C(O)C1=CC(CP(=O)(O)O)CCC1` (stereo not drawn) showed an IC50 greater than 90 mM.

As to `O=C(CP(=O)(O)O)O[C@@H]1CC(C(=O)O)=C[C@@H](O)[C@H]1O`, the IC50 is greater than 90 mM.

`O=C(O)CO[C@@H]1CC(C(=O)O)=C[C@@H](OP(=O)(O)O)[C@H]1O` gave a half-maximal inhibitory concentration (IC50) of 0.1 mM.

On to `O=C(O)C1=CC(OCP(=O)(O)O)CCC1` (stereo not drawn), for which the IC50 is greater than 90 mM.

As to `O=C(O)C1=CC(OC(C(=O)O)C(=O)O)CCC1` (stereo not drawn), half-maximal inhibition (IC50) required 15 mM. This counts as millimolar.

As to `O=C(O)C1=CC(C(C(=O)O)C(=O)O)CCC1` (stereo not drawn), the half-inhibitory concentration (IC50) is greater than 90 mM.

In the case of `O=C(O)C1=C/C(=C\P(=O)(O)O)CCC1`, the half-inhibitory concentration (IC50) was greater than 90 mM.

As to `O=C(O)C1=C/C(=C/P(=O)(O)O)CCC1`, the IC50 was greater than 90 mM.

In turn, `O=C(O)C1=CC(OP(=O)(O)O)CCC1` (stereo not drawn) returned an IC50 of 7.5 mM.

Consider `O=C(O)CO[C@@H]1CC(C(=O)O)=C[C@@H](O)[C@H]1O`, for which the IC50 is greater than 90 mM.

In the case of `C=C(O[C@@H]1CC(C(=O)O)=C[C@@H](O)[C@H]1O)C(=O)O`, the IC50 is greater than 90 mM.

Substrate in the next series: C=C(O[C@@H]1CC(C(=O)O)=C[C@@H](O)[C@H]1O)C(=O)O
The experiment in a line: (§1) Enzyme Kinetic activity was calculated against Escherichia coli EPSP(5-enolpyruvyl-shikimate-3-phosphate) Synthase.
Regarding B1, the Michaelis constant (Km) was 24 mM.

The next series has as its target T2, 3-phosphoshikimate 1-carboxyvinyltransferase (Escherichia coli K-12). The description is as §1.
Take `C=C(O[C@@H]1CC(C(=O)O)=C[C@@H](O)[C@H]1O)C(=O)O`: the k cat is 0.2 s⁻¹.
